Assay results reported in patent US5373089A, “Oxytocin antagonist” (Northwestern University, priority 1993, dated 1994).
Starred links: 1 amine or outer side, 2 acyl side, 3 side chain; linkers in the order of their positions; H or OH if unused. Positions of bridges follow the written chain, without caps; N, C: chain ends. Non-standard residues stand in square brackets, D forms with d. Residues, ends and D or L forms follow the SMILES beside them. X1 = O=C(CC1(S[*:2])CCCCC1)[*:1]; Pen = CC(C)(S)[C@H](N)C(=O)O; Orn = NCCC[C@H](N)C(=O)O; Mpa = O=C(O)CCS

Assays:
oxytocin = settings: reported in the cited literature; cited from earlier work
ESTROUS RAT UTERUS = experiment: Oxytocic bioassay (isolated rat uterus, integrated contraction response to oxytocin); assay type: cell-based
Excerpt: The protocol used for the oxytocin bioassay procedure is derived from procedures described in a paper by Sawyer, et al., Endocrinology, 106:81 (1980), which in turn was based on reports of Munsick, Brit. J. Pharmacol., 3:328 (1960), and Holton, Brit. J. Pharmacol., 3:328 (1948). The assay calculations for the pA2 estimates are described by Schild, British J. Pharmacology, 2:189 (1947). The major difference in the present procedure from those reported by others in the field is that the area under the contraction is integrated where most other techniques calculate the amplitude. Integration provides much more consistent and reliable results although the pA2 estimates are approximately an order of magnitude lower than those reported using amplitude of the contraction as the endpoint.
1. Animals--a 1.5 cm piece of uterus from a virgin rat (Holtzman) in natural estrus is used for the assay.
2. Buffer/Assay Bath--The buffer used is Munsicks. […] The buffer is gassed continuously with 95% oxygen; 5% carbon dioxide giving a pH of 7.4. The temperature of the assay bath is 37° C. A 10 ml assay bath is used that contains a water jacket for maintaining the temperature and inlet and outlet spikets for adding and removing buffer.
3. Polygraph/transducer--The piece of uterine tissue used for the assay is anchored at one end and connected to a Statham Strain Gauge Force Transducer at the other end which in turn is attached to a Grass Polygraph Model 79 for monitoring the contractions.
4. Assay Protocol. (a) The tissue is equilibrated in the assay bath for one hour with washing with new buffer every fifteen minutes. One gram of tension is kept on the tissue at all times.
(b) The tissue is stimulated initially with oxytocin at 10 nM to "acclimate" the tissue and with […] KCl to determine the maximum contractile response.
(d) The tissue is exposed to oxytocin (Calbiochemical, San Diego, Calif.) for one minute and washed out. There is a three minute interval before addition of the next dose of the agonist or antagonist. When the antagonist is tested, it is given five minutes before the agonist. The agonist is given for one minute. All responses are integrated using a 7P10 Grass Integrator. This is the major difference between the present protocol and others in the literature which usually measure amplitude of the contractions as the response. A single concentration of oxytocin, equal to 80% of the maximum response, is used to test the antagonist. […] This is repeated three times for each dose of antagonist for a three point assay.
(e) Calculations for pA2 : The dose-response (DR) ratios are calculated for antagonist and a Schild's Plot is performed by plotting the Log (DR-1) vs. Log of antagonist concentration. The line plotted is calculated by least squares regression analysis. The pA2 is the concentration of antagonist at the point where the regression line crosses the 0 point of the Log (DR-1) ordinate. The pA2 is the negative Log of the concentration of antagonist that will reduce the response to the agonist by one-half.
The protocol used for the oxytocin bioassay procedure is derived from procedures described in a paper by Sawyer, et al., Endocrinology, 106:81 (1980), which in turn was based on reports of Munsick, Brit. J. Pharmacol., 3:328 (1960), and Holton, Brit. J. Pharmacol., 3:328 (1948). The assay calculations for the pA2 estimates are described by Schild, Brit. J. Pharmacol. (1947). The major difference in procedure from those previously reported was the integration of the area under the contraction instead of merely calculating the amplitude. Integration provides more consistent and reliable results, although the pA2 estimates are about an order of magnitude lower than those reported using amplitude of the contraction as the endpoint.
A 1.5 cm piece of uterus from a virgin rat (Holtzman) in natural estrus is used for the assay.
The buffer used is Munsick's. […]

ADH = ADH bioassay (alteration in urine output due to ADH); assay type: in vivo; settings: in vivo
Method: The above compound was also tested for antagonism to vasopressin. Anti-ADH activity can be determined by measuring the alteration in urine output due to ADH in the presence and absence of the antagonist. A suitable ADH-assay is described in Sawyer, et al., Endocrinology, 63:694 (1958). […] The ratio of oxytocin antagonism to ADH antagonism was very high, viz. over 1, 866, as compared with 200 for the compositions disclosed in the parent applications.
The anti-ADH activity is measured by the alteration in urine […] in the presence and absence of the antagonist to determine the specificity of the antagonist. The anti-ADH assay is described in Sawyer, et al., Endocrinology, 63:694 (1958).

RAT OXYTOCIN RECEPTOR = target: T1, RAT OXYTOCIN RECEPTOR (Rattus norvegicus, UniProt P70536); experiment: Oxytocin receptor assay, pregnant rat uterus (P21) membranes, 3H-OT competition; assay type: binding
T1 construct: from tissue; host or cells: uterus of day-21 pregnant Holtzman rats, sucrose-gradient membrane fraction
T1 sequence (P70536 1-388): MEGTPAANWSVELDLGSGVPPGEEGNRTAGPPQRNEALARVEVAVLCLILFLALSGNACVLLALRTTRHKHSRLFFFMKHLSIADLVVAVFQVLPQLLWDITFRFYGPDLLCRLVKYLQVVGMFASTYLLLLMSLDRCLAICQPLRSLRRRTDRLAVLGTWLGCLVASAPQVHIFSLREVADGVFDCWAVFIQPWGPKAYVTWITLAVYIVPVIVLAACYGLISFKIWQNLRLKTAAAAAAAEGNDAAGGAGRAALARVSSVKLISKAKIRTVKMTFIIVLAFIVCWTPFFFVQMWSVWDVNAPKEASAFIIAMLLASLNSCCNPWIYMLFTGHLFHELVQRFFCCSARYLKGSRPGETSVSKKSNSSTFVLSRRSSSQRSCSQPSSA
Method: Uterine tissue was removed on day 21 of pregnancy (delivery=Days 211/2 to 221/2) from Holtzman rats. The tissue was emptied of its contents, rinsed in ice cold buffer, cut into small pieces and frozen at -70° C. until homogenization.
(§1) Oxytocin receptors (OTrs) reside on the cell membrane and are present at high concentrations at the end of pregnancy in uterine tissue. Frozen tissue is homogenized in Tris buffer, the homogenate filtered, and the filtrate centrifuged at 1000 g for 15 minutes at 4° C. The supernatant is centrifuged at 40,000 g for 30 minutes and the pellet containing the cell membranes resuspended in 10% sucrose. Density gradient ultracentrifugation is then performed by placing the 10 % sucrose suspension on top of 35% sucrose and centrifuging for 30 minutes in a swing bucket rotor at 105,000 g. The membranes at the interface of the 10%/35% sucrose are removed and resuspended in Tris buffer containing EDTA for 30 minutes. This procedure removes divalent cation and results in dissociation of any endogenously bound OT to the receptor. This mixture is then centrifuged for 15 minutes at 100,000 g and the pellet containing the membrane OTrs resuspended in Tris, PMSF, Mg^++, buffer by sonication.
(§2) The binding assay consist of 0.1 ml of 20,000 cmp of tritium labeled OT (New England Nuclear, […]), 0.1 ml of OT antagonist added at increasing concentration, 0.25 ml of buffer and 0.05 ml of membrane (70-150 ug protein). A nonspecific tube has 100× of cold OTA added to it. The incubation is for 30 minutes at 30 ° C. The membrane is pelleted by centrifugation in ultraclear mini tubes (5×41 mm) for 30 minutes at 105,000 g. The resulting pellet containing the bound ^3 H-OT is dissolved in 0.1N NaOH at 45 ° C. for 30 minutes and this mixture is then placed in liquid scintillation counting fluid and counted for dpms in a scintillation counter.
(§3) The data is analyzed by nonlinear curve fitting methods using McPherson's EBDA (J Pharmacol Methods 14:213-228, 1985) and Munson and Rodbard's LIGAND (Anal Biochem 107:220-239, 1980) program for saturation and competition analysis for determining Kds and Kis.

HUMAN OXYTOCIN RECEPTOR = target: T2, HUMAN OXYTOCIN RECEPTOR (Homo sapiens, UniProt P30559); experiment: Oxytocin receptor assay, human myometrial tissue membranes, 3H-OT competition; assay type: binding
T2 construct: Oxytocin receptors (OTrs) reside on the cell membrane and are present at high concentrations at the end of pregnancy in uterine tissue; from tissue; host or cells: human myometrium from cesarean section patients, sucrose-gradient membrane fraction
T2 sequence (P30559 1-389): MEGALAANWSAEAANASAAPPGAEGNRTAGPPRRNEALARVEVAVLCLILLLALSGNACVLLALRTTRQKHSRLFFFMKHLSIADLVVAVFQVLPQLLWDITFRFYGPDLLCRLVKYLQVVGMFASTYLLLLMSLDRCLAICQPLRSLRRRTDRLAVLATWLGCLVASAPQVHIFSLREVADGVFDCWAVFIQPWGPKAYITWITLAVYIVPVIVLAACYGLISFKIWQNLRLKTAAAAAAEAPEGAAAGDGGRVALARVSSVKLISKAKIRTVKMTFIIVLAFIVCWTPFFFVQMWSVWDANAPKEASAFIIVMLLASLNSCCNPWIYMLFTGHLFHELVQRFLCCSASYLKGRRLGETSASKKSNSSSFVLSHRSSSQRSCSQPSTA
Method: Human myometrial tissue was collected from patients at the time of cesarian section after informed consent. The tissue was rinsed in cold buffer, cut into small pieces and frozen at -70° C. until homogenization.
as §1, §2, §3

1-deamino, ethyloxytocin
pA2 (anti-oxytocic, literature) (oxytocin): 7.2

1deamino[D-Tyr(OEt)^2, Thr^4, Orn^8 ] vasopressin
pA2 (anti-oxytocic, literature) (oxytocin): 8.3

CC[C@H](C)[C@@H]1NC(=O)[C@H](Cc2ccccc2)NC(=O)[C@@H](Cc2ccccc2)NC(=O)CC2(CCCCC2)SSC[C@@H](C(=O)N2CCC[C@H]2C(=O)N[C@@H](CCCNC(=N)N)C(=O)NCC(N)=O)NC(=O)[C@H](CC(N)=O)NC1=O [Compound A, [Pmp^1,D-Phe^2,Phe^3,Ile^4,Arg^8] oxytocin, reference compound] ([dF]FINCPRG-NH2; linker N-5 via X1)
Oxytocic Bioassay pA2 (ESTROUS RAT UTERUS; virgin rat uterus in natural estrus, Munsick's buffer 0.5 mM Mg++, integrated contraction area): 7.35 | ADH Bioassay pA2 (ADH): 7.66

CC[C@H](C)[C@@H]1NC(=O)[C@@H](Cc2c[nH]c3ccccc23)NC(=O)CC2(CCCCC2)SSC(C)(C)[C@@H](C(=O)N2CCC[C@H]2C(=O)N[C@@H](CCCNC(=N)N)C(=O)NCC(N)=O)NC(=O)[C@H](CC(N)=O)NC(=O)[C@H](CCC(N)=O)NC1=O [Compound C2, [Pmp^1, DTrp^2, Pen^6, Arg^8] oxytocin] ([dW]IQN[Pen]PRG-NH2; linker N-5 via X1)
Kd (RAT OXYTOCIN RECEPTOR): 0.87 nM

CC[C@H](C)[C@@H]1NC(=O)[C@@H](Cc2c[nH]c3ccccc23)NC(=O)CC2(CCCCC2)SSC[C@@H](C(=O)N2CCC[C@H]2C(=O)N[C@@H](CCCNC(=N)N)C(=O)NCC(N)=O)NC(=O)[C@H](CC(N)=O)NC(=O)[C@H](CCC(N)=O)NC1=O [Compound C, [Pmp^1, D-Trp^2, Arg^8] oxytocin] ([dW]IQNCPRG-NH2; linker N-5 via X1)
ADH Bioassay pA2 (ADH): 5.51 | Kd (RAT OXYTOCIN RECEPTOR): 4.93 nM | Kd (HUMAN OXYTOCIN RECEPTOR): 5.49 nM

CCOc1ccc(C[C@H]2NC(=O)CCSSC[C@@H](C(=O)N3CCC[C@H]3C(=O)N[C@@H](CCCN)C(=O)NCC(N)=O)NC(=O)[C@H](CC(N)=O)NC(=O)[C@H]([C@@H](C)O)NC(=O)[C@H]([C@@H](C)CC)NC2=O)cc1 [E, [Mpa^1,DTyr(Et)^2,Thr^4, Orn^8] oxytocin, reference compound] ([Mpa][dY](Et)ITNCP[Orn]G-NH2; disulfide 1-6)
OXYTOCIC BIOASSAY ED50 (ESTROUS RAT UTERUS; estrous rat uterus, Table 3): 102.33 nM | BIOASSAY ED50 (ESTROUS RAT UTERUS; estrous rat uterus, Table 4): 102.3 nM | BIOASSAY (ANTI/OTA) (ESTROUS RAT UTERUS; ratio to ANTAG I, rat oxytocic bioassay): 0.3 | Kd (RAT OXYTOCIN RECEPTOR): 19.6 nM | rOTr (OTA/ANTI) (RAT OXYTOCIN RECEPTOR; ratio of binding affinity to ANTAG I, rat oxytocin receptor): 0.4 | Kd (HUMAN OXYTOCIN RECEPTOR): 18.9 nM | hOTR (OTA/ANTI) (HUMAN OXYTOCIN RECEPTOR; ratio of binding affinity to ANTAG I, human oxytocin receptor): 1.0

(1-deaminopenicillamine, 2-0-methyltyrosine) oxytocin
pA2 (anti-oxytocic, literature) (oxytocin): 7.8
